# According to patent US4556662A, “Bispidine derivatives and antiarrhythmic compositions” (BASF Aktiengesellschaft, priority 1981, dated 1985):
# Where two headings read alike, the source gives them in different places.
# How the values were obtained:
# [1] = Toxicity in the rat (oral), dose at which toxic symptoms occur; assay type: in vivo, rat (Sprague Dawley, male); details: in vivo, read-out: Q: quotient of the acute toxic dose and the antiarrhythmic ED 50%
# Method: (§1) Moreover, the antiarrhythmic activity of the novel substances is determined on male rats (Sprague Dawley, weight 200 to 230 g), after oral administration. 45 minutes after administration of the substance, the animals are anesthetized with sodium thiobutabarbital (100 mg/kg, administered intraperitoneally). Aconitine is used as the arrhythmogenic substance, and is infused intravenously at a rate of 0.005 mg/kg per min, 60 minutes after administration of the test substance. […] The dose which prolongs the infusion time by 50%, i.e. the ED 50%, is determined from the linear relationship between log dose (mg/kg) of the test substance and the relative prolongation of the aconitine infusion time (%).
# (§2) Further, the dose at which toxic symptoms (changes in the initial ECG, cyanosis or cramp) occur is determined. The quotient of the acute toxic dose and the antiarrhythmic ED 50% is therefore determined as a measure of the toleration.
# rat = assay: as above; assay type: in vivo, rat (Sprague Dawley, male); details: for Toxic dose (dose after whose administration the first toxic symptoms are observed): changes in the initial ECG, cyanosis or cramp
# Method: as §1, §2
# [2] = tested on: isolated guinea pig atrium; assay: Isolated guinea pig left atria: decrease in force of contraction (negatively inotropic effect); design: species or system guinea pig (Pirbright white, male); details: for EC25: Cavia porcellus, isolated left atria, pH 7.4, 32° C., read-out: Force of contraction EC 25% (concentration which causes a 25% decrease in the force of contraction); for Q: quotient EC 25% (decrease in force of contraction)/EC 50% (decrease in maximum driving rate): isolated guinea pig atrium; for Force of contraction R.A. (relative activity): reference substance B = 1.00
# Method: (§3) The antiarrhythmic activity of the compound according to the invention is determined on isolated left atria of male guinea pigs (Pirbright white, weight 350 to 450 g). Atria suspended in an organ bath (volume 125 ml) containing carbogen (95% O2 /5% CO2)-saturated Tyrode's solution (pH 7.4, 32° C.) are prestressed with 1.0 g and are driven by square wave pulses of 1 Hz base rhythm and double stimulation threshold values (rheo base: 0.2 to 1.4 V, chronaxia: 0.3 to 0.5 msec). As a criterion of the antiarrhythmic activity, the frequency (in Hz) at which the atria are just still able to follow the sequence of pulses (the maximum driving rate) is determined by automatic continuous increase in frequency. The concentration which produces a 50% decrease in maximum driving rate, i.e. the EC 50%, is calculated from the linear relationship between log concentration (mg/1) of the active substance and relative decrease in maximum driving rate (Δ%).
# Furthermore, the concentration which produces a 25% decrease in contraction amplitude, i.e. the EC 25%, is determined, as a measure of the negatively inotropic effect, from the linear relationship between log concentration (mg/1) and relative change in contraction amplitude (Δ%).
# [3] = tested on: isolated guinea pig atrium; assay: Isolated guinea pig left atria: decrease in maximum driving rate (antiarrhythmic activity); design: species or system guinea pig (Pirbright white, male); details: for EC50: Cavia porcellus, isolated left atria, pH 7.4, 32° C., read-out: Maximum driving rate EC 50% (concentration which causes a 50% decrease in the maximum driving rate); for Maximum driving rate R.A. (relative activity): reference substance B = 1.00
# Method: as §3
# [4] = tested on: aconitine-induced arrhythmia in rats; assay: Antiarrhythmic effect on aconitine-induced arrhythmia in the rat (oral); assay type: in vivo, rat (Sprague Dawley, male); details: for ED50: Rattus norvegicus, po, 1 h, read-out: Effective dose EC 50% (dose which prolongs the aconitine infusion time by 50%); for Effective dose R.A. (relative activity): rat, reference substance B = 1.00
# Method: as §1
# [5] = tested on: isolated strips of rat aorta; assay: Constrictive effect on isolated strips of rat aorta; details: for EC50: spiral strips of rat aorta, 37° C.
# Excerpt: The novel compounds are further characterized by investigation whether, in addition to antiarrhythmic properties, stimulating effects on smooth muscle, which may lead to undesirable side effects (hypertension or stimulation of the uterus), are detectable.
# [6] = tested on: blood pressure of unanesthetized dogs; assay: Effect on the blood pressure of unanesthetized dogs (intravenous); assay type: in vivo, dog
# Method: Moreover, the effect of the compound according to the invention on the systolic and diastolic blood pressure of unanesthetized dogs on intravenous administration is tested.
# [7] = read-out: EC 50, constrictive effect (50% of the contraction obtained with noradrenalin 10^-6 mol/l)
Compound,selectivity ratio [1],Toxic dose (dose after whose administration the first toxic symptoms are observed) (rat) [mg/kg],EC25 [2] [µg/mL],Q: quotient EC 25% (decrease in force of contraction)/EC 50% (decrease in maximum driving rate) [2],Force of contraction R.A. (relative activity) [2],EC50 [3] [µg/mL],Maximum driving rate R.A. (relative activity) [3],ED50 [4] [mg/kg],Effective dose R.A. (relative activity) ([4]; oral),"EC50 [5, 7] [µM]",effect on systolic and diastolic blood pressure (in words) [6],"Change in blood pressure, diastolic ([6]; 2.0 mg/kg)","Change in blood pressure, systolic ([6]; 2.0 mg/kg)",also measured
"c1ccc(CN2CC3CC(C2)CN(CC(c2ccccc2)c2ccccc2)C3)cc1 [A, N-benzyl-N'-(2,2-diphenylethyl)-bispidine]",7.7,100,4.92,3.44,4.43,1.43,3.93,13,1.75,,,,,
"c1ccc(CN2CC3CC(C2)CN(Cc2ccccc2)C3)cc1 [B, N,N'-bisbenzylbispidine]",4.4,100,21.8,3.68,,5.92,,22.7,,3.8,substantial increase in the systolic and in particular in the diastolic blood pressure,+59 Δmm Hg,+20 Δmm Hg,
"Nc1ccc(C(=O)N2CC3CC(CN(Cc4ccccc4)C3)C2)cc1 [C, N-(4-Aminobenzoyl)-N'-benzylbispidine]",7.3,46.4,100,16.3,0.22,6.14,0.96,6.37,3.56,,no hypertensive effect,-2 Δmm Hg,-5 Δmm Hg,"difference between toxic and antiarrhythmic doses, relative to reference substances (rat; versus reference substances): about twice the difference or about the same difference, respectively; stimulating effects on smooth muscle (in words) ([5]; Table 3): lack of stimulating effects on smooth muscle; constrictive effect on the vascular muscle in vitro (in words) ([5]; even in very high concentrations (3.10^-4 mol/l)): no constrictive effect; EC50 ([5]; no effect up to 3.10^-4 mol/l, read-out: EC 50, constrictive effect (symbol for no effect)): > 300 µM; decrease in the force of contraction (in words) ([2]; isolated guinea pig atria): relatively small decrease in the force of contraction; antiarrhythmic effect on isolated guinea pig atria (in words) ([3]; decrease in maximum driving rate): powerful antiarrhythmic effect; antiarrhythmic activity relative to reference substance A ([4]; aconitine-induced arrhythmia in rats, oral, versus A): twice; antiarrhythmic activity relative to reference substance B ([4]; aconitine-induced arrhythmia in rats, oral, versus B): about 4 times; antiarrhythmic activity relative to sparteine ([4]; aconitine-induced arrhythmia in rats, oral, versus sparteine): ~18 times"
"C1CCN2C[C@@H]3C[C@@H](CN4CCCC[C@@H]34)[C@H]2C1 [Sparteine, sparteine]",4.1,464,,,,,,112,4.93,550,substantial increase in the systolic and in particular in the diastolic blood pressure,,,"Change in blood pressure, diastolic ([6]; 5.0 mg/kg): +40 Δmm Hg; Change in blood pressure, systolic ([6]; 5.0 mg/kg): +19 Δmm Hg"
